# Test results taken from patent publication US10821115B2, “Compounds that inhibit Mcl-1 protein” (priority 2017, dated 2020).
# Read-outs that look alike come from different tables or passages of the source.
# Tests used:
# [1] = molecular target: recombinant human Mcl-1 (residues 171-327) / Bim interaction (Homo sapiens (Human), UniProt Q07820); experiment: biochemical; assay type: binding; conditions: read-out: Mcl-1 HTRF IC50
# [2] = test system: human multiple myeloma cell line, OPM-2; experiment: Cell viability assay (OPM-2 10 FBS), CellTiter-Glo; assay type: cell-based
# Outline: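 Serially diluted test compounds are incubated 16 h with cells (3000/well) in RPMI 1640 supplemented with 10% FBS. Viability is then measured by luminescence and IC50 calculated by 4-parameter logistic fit.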
# [3] = TR-FRET, Mcl-1(171-327) / biotin-Bim (51-76)
# [4] = Homo sapiens, OPM-2, 16 h, read-out: OPM-2 10% FBS IC50 IP, OPM-2 cells, 10% FBS, 16 h, CellTiter-Glo
# [5] = read-out: OPM-2 10% FBS IC50 IP, OPM-2 cells, 10% FBS, 16 h, CellTiter-Glo
# [6] = 0.1 nM Mcl-1(171-327), 0.05 nM biotin-Bim (51-76)
# [7] = Homo sapiens, OPM-2, 16 h, read-out: OPM-2 10% FBS IC50 IP, OPM-2 cells, 10% FBS, 16 h incubation
# recombinant human Mcl-1 (residues 171-327) / Bim interaction, sequence (Q07820 171-327): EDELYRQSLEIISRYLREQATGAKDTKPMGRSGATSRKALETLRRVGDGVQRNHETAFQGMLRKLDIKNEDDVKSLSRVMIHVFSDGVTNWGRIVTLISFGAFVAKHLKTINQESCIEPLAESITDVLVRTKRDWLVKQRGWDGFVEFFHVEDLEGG
SMILES,"IC50 [1, 3] [nM]","IC50 [2, 4] [nM]","IC50 [1, 6] [nM]",further results
"C[C@@H]1[C@@H](C)CCC[C@]2(CC(N3CCN(C)CC3)=NO2)[C@@H]2CC[C@H]2CN2C[C@@]3(CCCc4cc(Cl)ccc43)COc3ccc(cc32)C(=O)NS1(=O)=O [Example 100216, (1S,3′R,6′R,7′S,11′S,12′R)-6-chloro-11′,12′-dimethyl-3″-(4-methyl-1-piperazinyl)-3,4-dihydro-2H,4″H,15′H-dispiro[naphthalene-1,22′-[20]oxa[13]thia[1,14]diazatetracyclo [14.7.2.0~3,6~.0~19,24~]pentacosa[16,18,24]triene-7′,5″-[1,2]oxazol]-15′-one 13′,13′-dioxide]",0.311,374,,
"C[C@@H]1[C@@H](C)C/C=C/[C@@](O)(Cc2ccccn2)[C@@H]2CC[C@H]2CN2C[C@@]3(CCCc4cc(Cl)ccc43)COc3ccc(cc32)C(=O)NS1(=O)=O [Example 100242, (1S,3′R,6′R,7′S,8′E,11′S,12′R)-6-chloro-7′-hydroxy-11′,12′-dimethyl-7′-(2-pyridinylmethyl)-3,4-dihydro-2H,15′H-spiro[naphthalene-1,22′-[20]oxa[13]thia[1,14]diazatetracyclo [14.7.2.0~3,6~.0~19,24~]pentacosa[8,16,18,24]tetraen]-15′-one 13′,13′-dioxide]",2.15,,,"IC50 [2, 5]: 1450 nM"
"CCO[C@@]1(CN2CCC(OC)CC2)/C=C/C[C@H](C)[C@@H](C)S(=O)(=O)NC(=O)c2ccc3c(c2)N(C[C@@H]2CC[C@H]21)C[C@@]1(CCCc2cc(Cl)ccc21)CO3 [Example 113, (1S,3′R,6′R,7′S,8′E,11′S,12′R)-6-chloro-7′-ethoxy-7′-((4-methoxy-1-piperidinyl)methyl)-11′,12′-dimethyl-3,4-dihydro-2H,15′H-spiro[naphthalene-1,22′-[20]oxa[13]thia[1,14]diazatetracyclo [14.7.2.0~3,6~.0~19,24~]pentacosa[8,16,18,24]tetraen]-15′-one 13′,13′-dioxide]",,,1.19,"IC50 [2, 7]: 1330 nM"
"C/C=C/C[C@]1(OC)/C=C/C[C@H](C)[C@@H](C)S(=O)(=O)NC(=O)c2ccc3c(c2)N(C[C@@H]2CC[C@H]21)C[C@@]1(CCCc2cc(Cl)ccc21)CO3 [Example 100438, (1S,3′R,6′R,7′S,8′E,11′S,12′R)-7′-((2E)-2-buten-1-yl)-6-chloro-7′-methoxy-11′,12′-dimethyl-3,4-dihydro-2H,15′H-spiro[naphthalene-1,22′-[20]oxa[13]thia[1,14]diazatetracyclo [14.7.2.0~3,6~.0~19,24~]pentacosa[8,16,18,24]tetraen]-15′-one 13′,13′-dioxide]",0.169,547,,
"CO[C@]1(CN2CCN3CCCC[C@@H]3C2)/C=C/C[C@H](C)[C@@H](C[C@H](C)O)S(=O)(=O)NC(=O)c2ccc3c(c2)N(C[C@@H]2CC[C@H]21)C[C@@]1(CCCc2cc(Cl)ccc21)CO3 (single isomer, unassigned) [Example 363]",,,0.08,"IC50 ([2]; read-out: OPM-2 10% FBS IC50 IP, OPM-2 cells, 10% FBS, 16 h incubation): 101 nM"
"CO[C@]1(CN2CCN(CC(F)F)CC2)/C=C/C[C@H](C)[C@@H](C)S(=O)(=O)NC(=O)c2ccc3c(c2)N(C[C@@H]2CC[C@H]21)C[C@@]1(CCCc2cc(Cl)ccc21)CO3 [Example 95, (1S,3′R,6′R,7′R,8′E,11′S,12′R)-6-chloro-7′-((4-(2,2-difluoroethyl)-1-piperazinyl)methyl)-7′-methoxy-11′,12′-dimethyl-3,4-dihydro-2H,15′H-spiro[naphthalene-1,22′-[20]oxa[13]thia[1,14]diazatetracyclo [14.7.2.0~3,6~.0~19,24~]pentacosa[8,16,18,24]tetraen]-15′-one 13′,13′-dioxide]",,,0.189,"IC50 [2, 7]: 338 nM"
"CO[C@]1(CN2CC3(C2)CN(C(C)C)C3)/C=C/C[C@H](C)[C@@H](C)S(=O)(=O)NC(=O)c2ccc3c(c2)N(C[C@@H]2CC[C@H]21)C[C@@]1(CCCc2cc(Cl)ccc21)CO3 [Example 320, (1S,3′R,6′R,7′R,8′E,11′S,12′R)-6-chloro-7′-methoxy-11′,12′-dimethyl-7′-((6-(1-methylethyl)-2,6-diazaspiro[3.3]hept-2-yl)methyl)-3,4-dihydro-2H,15′H-spiro[naphthalene-1,22′-[20]oxa[13]thia[1,14]diazatetracyclo [14.7.2.0~3,6~.0~19,24~]pentacosa[8,16,18,24]tetraen]-15′-one 13′,13′-dioxide]",,,0.524,"IC50 [2, 7]: 302 nM"
"C[C@@H]1[C@@H](C)CCC[C@@](O)(CS(=O)(=O)N2CCN(C)CC2)[C@@H]2CC[C@H]2CN2C[C@@]3(CCCc4cc(Cl)ccc43)COc3ccc(cc32)C(=O)NS1(=O)=O [Example 100139, (1S,3′R,6′R,7′S,11′S,12′R)-6-chloro-7′-hydroxy-11′,12′-dimethyl-7′-(((4-methyl-1-piperazinyl)sulfonyl)methyl)-3,4-dihydro-2H,15′H-spiro[naphthalene-1,22′-[20]oxa[13]thia[1,14]diazatetracyclo [14.7.2.0~3,6~.0~19,24~]pentacosa[16,18,24]trien]-15′-one 13′,13′-dioxide]",2.58,,,"IC50 [2, 5]: 974 nM"
"CO[C@]1(CC(=O)N2CC[C@@H](N(C)C)C2)/C=C/C[C@H](C)[C@@H](C)S(=O)(=O)NC(=O)c2ccc3c(c2)N(C[C@@H]2CC[C@H]21)C[C@@]1(CCCc2cc(Cl)ccc21)CO3 [Example 100317, (1S,3′R,6′R,7′R,8′E,11′S,12′R)-6-chloro-7′-(2-((3R)-3-(dimethylamino)-1-pyrrolidinyl)-2-oxoethyl)-7′-methoxy-11′,12′-dimethyl-3,4-dihydro-2H,15′H-spiro[naphthalene-1,22′-[20]oxa[13]thia[1,14]diazatetracyclo [14.7.2.0~3,6~.0~19,24~]pentacosa[8,16,18,24]tetraen]-15′-one 13′,13′-dioxide]",0.188,157,,
"C[C@@H]1[C@@H](C)C/C=C/[C@@](O)(C(F)F)[C@@H]2CC[C@H]2CN2C[C@@]3(CCCc4cc(Cl)ccc43)COc3ccc(cc32)C(=O)NS1(=O)=O [Example 100070, (1S,3′R,6′R,7′S,8′E,11′S,12′R)-6-chloro-7′-(difluoromethyl)-7′-hydroxy-11′,12′-dimethyl-3,4-dihydro-2H,15′H-spiro[naphthalene-1,22′-[20]oxa[13]thia[1,14]diazatetracyclo [14.7.2.0~3,6~.0~19,24~]pentacosa[8,16,18,24]tetraen]-15′-one 13′,13′-dioxide]",4.85,,,"IC50 [2, 5]: 1070 nM"
"CO[C@@]1(c2nccn2C)CCC[C@H](C)[C@@H](C)S(=O)(=O)NC(=O)c2ccc3c(c2)N(C[C@@H]2CC[C@H]21)C[C@@]1(CCCc2cc(Cl)ccc21)CO3 [Example 100230, (1S,3′R,6′R,7′S,11′S,12′R)-6-chloro-7′-methoxy-11′,12′-dimethyl-7′-(1-methyl-1H-imidazol-2-yl)-3,4-dihydro-2H,15′H-spiro[naphthalene-1,22′-[20]oxa[13]thia[1,14]diazatetracyclo [14.7.2.0~3,6~.0~19,24~]pentacosa[16,18,24]trien]-15′-one 13′,13′-dioxide]",0.473,544,,
